In assay [1] the target is T1, angiotensin II receptor type 1 (AT1), suprarenal gland of rabbit (Oryctolagus cuniculus, UniProt P34976).
T1 construct: Receptor: suprarenal gland of rabbit; from tissue; host or cells: suprarenal gland (adrenal) of rabbit
T1 sequence (P34976 1-359): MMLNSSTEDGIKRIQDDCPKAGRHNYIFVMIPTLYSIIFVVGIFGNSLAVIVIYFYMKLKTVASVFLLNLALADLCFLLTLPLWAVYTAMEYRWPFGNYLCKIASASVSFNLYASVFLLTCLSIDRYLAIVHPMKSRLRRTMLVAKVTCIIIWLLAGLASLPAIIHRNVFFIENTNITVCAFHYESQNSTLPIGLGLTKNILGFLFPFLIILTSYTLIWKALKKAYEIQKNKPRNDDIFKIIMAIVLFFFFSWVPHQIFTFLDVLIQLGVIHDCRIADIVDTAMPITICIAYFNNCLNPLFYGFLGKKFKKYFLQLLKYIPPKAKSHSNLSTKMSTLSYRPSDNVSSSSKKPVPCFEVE
Description: Receptor binding test, AT1 (tracer 3H-angiotensin II, displacer DuP753). The note with it: room temperature, read-out: Binding inhibition ratio (%) of the test compounds at 1 μM, AT1. As to the method:
Determination of total binding in the presence of each drug to be tested was made in the following way. A test drug of a predetermined concentration (0.025 ml; dissolved in dimethyl sulfoxide, then diluted two-fold with a buffer attached to the Drug Discovery System and used for assay), a tracer (0.025 ml), and a receptor (0.2 ml) were added to make a total volume of 0.25 ml. After incubation (at room temperature for 3 hours for the angiotensin II receptor type 1 (AT1) and at 37° C. for one hour for the type 2 (AT2)), the reaction mixture was subjected to suction filtration (using GF/C filter paper for AT1 and GF/B filter paper for AT2). The filter paper (tracer-receptor complex) after suction filtration was measured by a y-well counter (ARC-500, Aloka). The non-specific binding was determined by the similar operation by using a large excess of displacer. The specific binding at the predetermined concentration of the test drug was calculated by deducting the non-specific binding from the total binding. The ratio (%) at which the test drugs inhibit binding between radioactive ligand and receptor was determined for both AT1 and AT2 by using the test drugs of the predetermined concentration and a control drug. | *Receptor: suprarenal gland of rabbit Tracer: ^3 Hangiotensin II | (displacer: […])

Assay [2] addresses T2, angiotensin II receptor type 2 (AT2), bovine cerebellar cortex (Bos taurus, UniProt G5E6F7).
T2 construct: Receptor: bovine cerebellar cortex; from tissue; host or cells: bovine cerebellar cortex
T2 sequence (G5E6F7 1-362): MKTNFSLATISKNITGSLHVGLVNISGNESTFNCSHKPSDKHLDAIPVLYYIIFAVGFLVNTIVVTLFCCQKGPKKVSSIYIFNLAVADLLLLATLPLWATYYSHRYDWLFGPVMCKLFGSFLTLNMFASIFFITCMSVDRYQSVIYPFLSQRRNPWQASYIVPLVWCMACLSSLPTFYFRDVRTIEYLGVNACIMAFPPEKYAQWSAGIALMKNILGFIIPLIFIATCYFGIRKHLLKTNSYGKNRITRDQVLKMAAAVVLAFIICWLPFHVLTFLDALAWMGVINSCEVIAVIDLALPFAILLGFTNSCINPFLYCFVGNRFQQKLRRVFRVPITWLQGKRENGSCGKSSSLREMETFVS
Description: Receptor binding test, AT2 (tracer 125I-Tyr4-angiotensin II, displacer angiotensin II (human)). The note with it: 1 h, read-out: Binding inhibition ratio (%) of the test compounds at 1 μM, AT2. As to the method:
Determination of total binding in the presence of each drug to be tested was made in the following way. A test drug of a predetermined concentration (0.025 ml; dissolved in dimethyl sulfoxide, then diluted two-fold with a buffer attached to the Drug Discovery System and used for assay), a tracer (0.025 ml), and a receptor (0.2 ml) were added to make a total volume of 0.25 ml. After incubation (at room temperature for 3 hours for the angiotensin II receptor type 1 (AT1) and at 37° C. for one hour for the type 2 (AT2)), the reaction mixture was subjected to suction filtration (using GF/C filter paper for AT1 and GF/B filter paper for AT2). The filter paper (tracer-receptor complex) after suction filtration was measured by a y-well counter (ARC-500, Aloka). The non-specific binding was determined by the similar operation by using a large excess of displacer. The specific binding at the predetermined concentration of the test drug was calculated by deducting the non-specific binding from the total binding.

The mark [3] stands for this setting: 1 μM, receptor: bovine cerebellar cortex, 37° C., one hour.

Each structure is given as a SMILES string. Like-named read-outs stand apart in the source and are kept apart here.

For `CN(C)C(=O)[C@@H]1Cc2c(ncn2Cc2ccc(NC(=O)c3ccccc3C(=O)O)cc2)CN1C(=O)C(c1ccccc1)c1ccccc1` [Compound I-1], the inhibition at 1 µM in assay [1] was 0%; in assay [2] (setting [3]) it was 100%.
In the case of `Cc1cc(Cn2cnc3c2C[C@@H](C(=O)N(C)C)N(C(=O)C(c2ccccc2)c2ccccc2)C3)ccc1NC(=O)c1ccccc1C(=O)O` [Compound I-2, (S)-1-(4-(2-carboxybenzoylamino)-3-methylphenyl)methyl-N,N-dimethyl-5-diphenylacetyl-4,5,6,7-tetrahydro-1H-imidazo[4,5-c]pyridine-6-carboxamide], the results for the inhibition at 1 µM in assay [1] and in assay [2] (setting [3]) were 0% and 100%, respectively.
On to `Cc1cc(Cn2cnc3c2C[C@@H](C(=O)N2CCOCC2)N(C(=O)C(c2ccccc2)c2ccccc2)C3)ccc1NC(=O)c1ccccc1C(=O)O` [Compound I-7], for which the inhibition at 1 µM was found to be 0% in assay [1] and 100% in assay [2] (setting [3]).
Take `CCCCc1nc2c(n1Cc1ccc(NC(=O)c3ccccc3C(=O)O)c(C)c1)C[C@@H](C(=O)N(C)C)N(C(=O)C(c1ccccc1)c1ccccc1)C2` [Compound I-12]: the inhibition at 1 µM is 100% in assay [1] and 0% in assay [2] (setting [3]).
On to `CCCCc1nc2c(n1Cc1ccc(-c3ccccc3C(=O)O)cc1)C[C@@H](C(=O)N(C)C)N(C(=O)C(c1ccccc1)c1ccccc1)C2` [Compound I-17], for which the values for the inhibition at 1 µM in assay [1] and in assay [2] (setting [3]) were 100% and 0%, respectively.
In the same order, the values of `CCCCc1nc2c(n1Cc1ccc(-c3ccccc3-c3nn[nH]n3)c(C)c1)C[C@@H](C(=O)N(C)C)N(C(=O)C(c1ccccc1)c1ccccc1)C2` [Compound I-19] are 100% and 0%.
Regarding `O=C(O)c1ccc(Cn2cnc3c2C[C@@H](C(=O)N2CCOCC2)N(C(=O)C(c2ccccc2)c2ccccc2)C3)cc1` [Compound I-21], the inhibition at 1 µM in assay [1] was 0%; in assay [2] (setting [3]) it was 100%.
In the case of `O=C([C@@H]1Cc2c(ncn2Cc2ccc(-c3ccccc3-c3nnn[nH]3)cc2)CN1C(=O)C(c1ccccc1)c1ccccc1)N1CCOCC1` [Compound I-24, 4-[[(S)-5-diphenylacetyl-1-[(2'-(1H-tetrazol-5-yl)biphenyl-4-yl)methyl]-4,5,6,7-tetrahydro-1H-imidazo[4,5-c]pyridin-6-yl]carbonyl]morpholine], the inhibition at 1 µM in assay [1] turned out to be 0%; in assay [2] (setting [3]), 100%.
For the molecule `CCCCc1nc2c(n1Cc1ccc(NC(=O)c3ccccc3C(=O)O)c(C)c1)C[C@@H](C(=O)N1CCOCC1)N(C(=O)C(c1ccccc1)c1ccccc1)C2` [Compound I-30], the inhibition at 1 µM stood at 100% in assay [1] and 0% in assay [2] (setting [3]).
In the same order, the values of `CCCCc1nc2c(n1Cc1ccc(-c3ccccc3-c3nn[nH]n3)cc1)C[C@@H](C(=O)N1CCOCC1)N(C(=O)C(c1ccccc1)c1ccccc1)C2` [Compound I-31] are 100% and 0%.
With `CCCCc1nc2c(n1Cc1ccc(-c3ccccc3-c3nn[nH]n3)cc1)C[C@@H](C(=O)N1CCSCC1)N(C(=O)C(c1ccccc1)c1ccccc1)C2` [Compound I-32], the inhibition at 1 µM in assay [1] was 100%; in assay [2] (setting [3]), 0%.
For the molecule `CCCCc1nc2c(n1Cc1ccc(-c3ccccc3-c3nn[nH]n3)cc1)C[C@@H](C(=O)N(CC)CC)N(C(=O)C(c1ccccc1)c1ccccc1)C2` [Compound I-40], the inhibition at 1 µM in assay [1] was 100%; in assay [2] (setting [3]), 0%.
For `CCCCc1nc(Cl)c(CO)n1Cc1ccc(-c2ccccc2-c2nn[nH]n2)cc1` [DuP753, reference compound], the inhibition at 1 µM amounted to 70% in assay [1] and 0% in assay [2].
As to `Cc1cc(Cn2cnc3c2CC(C(=O)O)N(C(=O)C(c2ccccc2)c2ccccc2)C3)ccc1N` (centres unmarked) [PD123177, reference compound], the inhibition at 1 µM in assay [1] is 0%; in assay [2] (setting [3]), 65%.
Take `Cc1cc(Cn2cnc3c2CC(C(=O)O)N(C(=O)C(c2ccccc2)c2ccccc2)C3)ccc1NC(=O)c1ccccc1C(=O)O` (centres unmarked) [Reference compound 1, reference compound]: the inhibition at 1 µM was 0% in assay [1] and 71% in assay [2] (setting [3]).
Regarding `COC(=O)C1Cc2c(ncn2Cc2ccc(NC(=O)c3ccccc3C(=O)O)c(C)c2)CN1C(=O)C(c1ccccc1)c1ccccc1` (centres unmarked) [Reference compound 2, reference compound], the inhibition at 1 µM in assay [1] was 0%; in assay [2] (setting [3]), 72%.
`CCCc1nc2c(n1Cc1ccc(-c3ccccc3-c3nn[nH]n3)c(C)c1)CC(C(=O)O)N(C(=O)C(c1ccccc1)c1ccccc1)C2` (centres unmarked) [Reference compound 26, reference compound]: the inhibition at 1 µM was found to be 78% in assay [1] and 0% in assay [2] (setting [3]).
For `O=C(O)C1Cc2c(ncn2Cc2ccc(-c3ccccc3-c3nn[nH]n3)cc2)CN1C(=O)C(c1ccccc1)c1ccccc1` (centres unmarked) [Reference compound 27, reference compound], the inhibition at 1 µM in assay [1] was 0%; in assay [2] (setting [3]), 76%.
As for `CCCc1nc2c(n1Cc1ccc(-c3ccccc3-c3nn[nH]n3)cc1)CC(C(=O)O)N(C(=O)C(c1ccccc1)c1ccccc1)C2` (centres unmarked) [Reference compound 50, reference compound], the inhibition at 1 µM in assay [1] stood at 75%; in assay [2] (setting [3]), 0%.

These data come from patent US5401736A, “4,5,6,7-tetrahydro-1H-imidazo[4,5-c]pyridine-6-carboxylic acid amide” (Kureha Kagaku Kogyo Kabushiki Kaisha, priority 1992, dated 1995).
